Key:
Plasmodium falciparum [1] = test: NOVARTIS: Inhibition of Plasmodium falciparum W2 (drug-resistant) proliferation in erythrocyte-based infection assay; assay type: functional, organism-based
Plasmodium falciparum [2] = test: NOVARTIS: Inhibition of Plasmodium falciparum 3D7 (drug-susceptible) proliferation in erythrocyte-based infection assay; assay type: functional, organism-based; conditions: Plasmodium falciparum, 3D7
[3] = NOVARTIS: Cytotoxicity against human hepatocellular carcinoma cell line (Huh7); assay type: toxicity, cell-based, Huh-7; conditions: Huh7 cells (hepatocellular carcinoma cell line)
[4] = Plasmodium falciparum, W2, read-out: EC50

Row | SMILES | EC50 (Plasmodium falciparum [1]; [4]) | EC50 (Plasmodium falciparum [2]) | CC50 [3] | EC50 (Plasmodium falciparum [1])
1 | CCC(C)(C)c1ccc(OCCCC[n+]2cccc(C)c2C)c(C(C)(C)CC)c1 | 430 nM | 495 nM | 15200 nM | 
2 | Cc1ccn2c(NC(C)(C)CC(C)(C)C)c(-c3ccccc3OC(=O)c3ccc(Cl)cc3Cl)nc2c1 | < 8.81 nM | 728 nM | > 10000 nM | 
3 | CC1=C2C(=O)c3ccccc3C2NC(=O)N1 (stereo unspecified) | > 12500 nM | > 352 nM | > 100000 nM | 
4 | CC(=O)c1ccc(-n2cc(C(=O)C(C)Oc3ccc(Cl)cc3Cl)nn2)cc1 (stereo unspecified) | 192 nM | 72.9 nM | > 10000 nM | 
5 | COc1ccc(C[C@H]2NC[C@H](O)[C@H]2OC(C)=O)cc1 [ANISOMYCIN] | 10.3 nM | 9.75 nM | > 2360 nM | 
6 | CN(C)c1ccc(/C=C/C(=O)NC(=O)c2ccccc2OC(=O)c2ccccc2)cc1 | 265 nM | 238 nM | > 10000 nM | 
7 | Cc1cccc(C)c1-n1c(SCc2cccc(F)c2)nc2c(sc(=S)n2-c2c(C)cccc2C)c1=O | 728 nM | 5160 nM | > 100000 nM | 
8 | O=C1CN(C(=O)CC2CCCCC2)C(c2ccccc2)c2cc(Cl)ccc2N1 (stereo unspecified) | 4570 nM | 7610 nM | 46300 nM | 
9 | COc1cc(C(=O)ON=C(N)Cc2cccc3ccccc23)cc(OC)c1OC | 171 nM | 280 nM | 48100 nM | 
10 | COc1ccc(Nc2nc(Nc3ccc(OC)cc3)c3ccccc3n2)cc1 | 51.9 nM | 57.3 nM | 2100 nM | 
11 | O=C(NCc1ccccc1)c1cnc(NCCC(c2ccccc2)c2ccccc2)nc1NC1CC1 | < 15.8 nM | > 1160 nM | > 10000 nM | 
12 | Cc1ccnc(NC(c2cccc(Cl)c2Cl)c2ccc3cccnc3c2O)c1 (stereo unspecified) | 144 nM | 152 nM | > 49000 nM | 
13 | Oc1ccc(Br)cc1C=NNc1nc2ccccc2[nH]1 | 504 nM | 536 nM | 54000 nM | 
14 | c1ccc(-c2cccc(-c3ccccn3)n2)nc1 [TERPYRIDINE] | 39.2 nM | 154 nM | 12600 nM | 
15 | COc1cccc(Nc2nc(NCC3CCCO3)c3ccccc3n2)c1 (stereo unspecified) | 286 nM | 230 nM | 7670 nM | 
16 | O=C(COc1ccc(Cl)cc1)N1CCCn2cccc2C1c1ccc(Cl)cc1 (stereo unspecified) | 108 nM | 631 nM | > 10000 nM | 
17 | CCOCCCNC(=O)c1cc(NC(=O)c2ccc(Cl)c([N+](=O)[O-])c2)ccc1N1CCCCC1 | 77 nM | > 1250 nM | 1420 nM | 
18 | O=C(NNC(=S)NCc1ccco1)C(F)(F)F | 3170 nM | > 12500 nM | > 100000 nM | 
19 | CN(C)CCNCc1cc(-c2ccnc3cc(Cl)ccc23)ccc1O | 152 nM | 120 nM | 45600 nM | 
20 | Cc1ccccc1Oc1cc(NC(=O)c2cc3n(n2)C(C(F)(F)F)CC(c2ccccc2)N3)cc(Oc2ccccc2C)c1 (stereo unspecified) | 380 nM | 359 nM | > 100000 nM | 
21 | c1ccc2cc3c(N4CCN(CCCN5CCN(c6ccnc7cc8ccccc8cc67)CC5)CC4)ccnc3cc2c1 | 417 nM | 79.4 nM | > 10000 nM | 
22 | CC1(C)N=C(N)N=C(N)N1c1ccc(Oc2ccc(Cl)cc2)c(Cl)c1 | 628 nM | 58 nM | 35100 nM | 
23 | COc1cc(NC(C)CCCN(Cc2ccc(F)cc2)C(=O)C(C)(C)CCl)c2ncccc2c1 (stereo unspecified) | < 3.43 nM | 469 nM | > 1830 nM | 

Row | SMILES | EC50 (Plasmodium falciparum [1]; [4]) | EC50 (Plasmodium falciparum [2]) | CC50 [3] | EC50 (Plasmodium falciparum [1])
24 | O=C(C1CC1)N1CCN=C1SCc1ccc(C(F)(F)F)cc1 | > 3700 nM | 6080 nM | > 100000 nM | 
25 | C=CCn1c2cc(C)sc2c2cnn(CC(=O)N3CC(C)CC(C)C3)c(=O)c21 (stereo unspecified) | > 857 nM | > 1250 nM | > 10000 nM | 
26 | COc1ccc(-n2c(SC)nc3sc4c(c3c2=O)CCN(Cc2ccccc2)C4)cc1 | 2550 nM | 2480 nM | > 100000 nM | 
27 | COc1ccc(C2CC(c3ccccc3Cl)n3ncnc3N2C(=O)C2CC2)cc1 (stereo unspecified) | > 1280 nM | 1320 nM | > 10000 nM | 
28 | COc1ccc(C(=O)C[n+]2ccc(N)c(C)c2C)cc1 | > 665 nM | 438 nM | > 10000 nM | 
29 | Oc1ccc(-c2ccccn2)cc1CNC1CCN(Cc2ccccc2)CC1 | 143 nM | 411 nM | 21000 nM | 
30 | C1CCC(NP2(NC3CCCCC3)=NP(NC3CCCCC3)(NC3CCCCC3)=NP(NC3CCCCC3)(NC3CCCCC3)=N2)CC1 | 3150 nM | 6610 nM | 41400 nM | 
31 | COC(=O)c1c(NC(=O)c2c(-c3ccccc3)noc2C)sc2c1CCC2 | 1330 nM | 2980 nM | > 100000 nM | 
32 | O=[N+]([O-])c1cc([N+](=O)[O-])c2cccnc2c1Nc1cccc2cccnc12 | 6440 nM | 8040 nM | 59900 nM | 
33 | CC(C)CNc1nc(NCCCN2CCCCC2C)ncc1C(=O)NCCc1ccccc1 (stereo unspecified) | 729 nM | 383 nM | > 10000 nM | 
34 | CCCCN(C(=O)CCC(=O)Nc1cc(C)on1)C(C(=O)NC1CCCC1)c1ccc(C)o1 (stereo unspecified) | 36.9 nM | 22.2 nM | > 10000 nM | 
35 | CCOC(=O)C1=C(C)NC2=C(C(=O)CC(c3ccc(OC)cc3)C2)C1c1cccc(F)c1 (stereo unspecified) | 50.4 nM | 137 nM | > 100000 nM | 
36 | COc1ccc2c(c1OC)C(=O)N1c3ccccc3N=C(c3ccc(I)cc3)CC21 (stereo unspecified) | 223 nM | 416 nM | > 100000 nM | 
37 | c1ccc(C2=NN(c3ccccc3)N(c3ccccc3)N2)cc1 | 129 nM | 137 nM | > 100000 nM | 
38 | COc1ccc(C2CC(c3cccs3)=NN2C(=O)CSc2nnc(CNC(=O)c3cccs3)n2-c2cccc(C)c2)cc1 (stereo unspecified) | 1610 nM | 10400 nM | > 100000 nM | 
39 | CC(=NNc1nc2ccccc2s1)c1ccc([N+](=O)[O-])cc1 | > 848 nM | > 965 nM | > 10000 nM | 
40 | CC1=C(C(=O)OC(C)C)C(c2ccc(F)cc2)C2=C(CC(c3ccc(Cl)cc3)CC2=O)N1 (stereo unspecified) | 91.3 nM | 358 nM | 29700 nM | 
41 | CCC(C)(C)c1ccc(OCCCC[n+]2ccc(C)cc2)c(C(C)(C)CC)c1 | 193 nM | 532 nM | 12000 nM | 
42 | Cc1cc(Nc2ccc(O)cc2)nc2cccc(O)c12 | 407 nM | 468 nM | 52400 nM | 
43 | Cn1c(=O)n(C)c2cc(NC(=O)CCl)ccc21 | 444 nM | 1460 nM | 12200 nM | 
44 | COc1ccc(C2=NN(C(=O)CCC(=O)O)C(c3ccccc3F)C2)cc1 (stereo unspecified) | 606 nM | > 1250 nM | > 10000 nM | 
45 | CC(C)(C)c1ccc(O)c(CNC2CCCCC2)c1 | 67.8 nM | 250 nM | 60100 nM | 
46 | C(=Nc1cnc2ccccc2c1)c1c2n(c3ccccc13)CCCN2 | 1510 nM | 663 nM | > 100000 nM | 

Row | SMILES | EC50 (Plasmodium falciparum [1]; [4]) | EC50 (Plasmodium falciparum [2]) | CC50 [3] | EC50 (Plasmodium falciparum [1])
47 | COc1cc(CNc2ccc(N3CCCCC3)cc2)ccc1OCc1ccccc1F | 335 nM | 475 nM | > 100000 nM | 
48 | CCN(c1ccc(F)cc1)S(=O)(=O)c1ccc2[nH]cc(C(=O)NC(C)(C)C)c(=O)c2c1 | 830 nM | > 1600 nM | > 10000 nM | 
49 | CCCCNC(=O)C(c1cccc(OC)c1)N1C(=O)c2cc(OCCCC)ccc2NC(=O)C1CO (stereo unspecified) | 168 nM | 205 nM | > 2370 nM | 
50 | Cc1ccccc1C(=O)NCCCCNc1ccnc2cc(Cl)ccc12 | 479 nM | 450 nM | > 10000 nM | 
51 | COc1ccc2c(c1)-c1c(ssc1=S)C(C)(C)N2C(=O)c1cccc(Cl)c1 | > 1250 nM | 1090 nM | > 100000 nM | 
52 | O=C(Cc1cccs1)N1CCOc2c(cc(-c3csc4ccccc34)cc2OCCc2ccccn2)C1 | 106 nM | 179 nM | > 100000 nM | 
53 | N#C/C(=C\c1cc2ccccc2nc1Cl)c1nc(-c2ccc(Cl)c(Cl)c2)cs1 | > 1010 nM | > 1250 nM | > 10000 nM | 
54 | CC(C)(C)c1cc(CCC(=O)Nc2c3c(nc4ccccc24)N(c2cccc(Cl)c2)CC3)cc(C(C)(C)C)c1O |  | 6650 nM | > 100000 nM | No fit
55 | COc1ccc(S(=O)(=O)NCC2CCC(C(=O)NCC(OC)OC)CC2)cc1 (stereo unspecified) | > 1250 nM | > 1180 nM | > 10000 nM | 
56 | Cc1ccccc1Cn1c(N2CCC(C(=O)NCc3ccccn3)CC2)nc2ccccc21 | 2160 nM | 1940 nM | > 100000 nM | 
57 | COc1cc2c(cc1OC)-c1cc3ccc4c(c3c[n+]1CC2)OCO4 | 233 nM | 103 nM | > 6250 nM | 
58 | CCCn1c(=N)c(C(=O)NC(C)c2ccccc2)cc2c(=O)n3cccc(C)c3nc21 (stereo unspecified) | 3530 nM | 1650 nM | > 100000 nM | 
59 | O=C(NC1CCN(Cc2ccccc2)CC1)c1cc([N+](=O)[O-])cc([N+](=O)[O-])c1 | 1220 nM | 476 nM | > 10000 nM | 
60 | COc1ccc([C@@H]2Nc3ccc(C(C)=O)cc3[C@@H]3C=CC[C@@H]32)cc1[N+](=O)[O-] | 1760 nM | > 1250 nM | > 10000 nM | 
61 | CCC(=O)Nc1cc(NC(=O)CSc2nc(C)c(CC)c(O)n2)ccc1C | 1.61 nM | > 1250 nM | 3920 nM | 
62 | C[C@H](Nc1cncc(-c2ccc(Cl)cc2)n1)c1ccccc1 | 56.2 nM | 53.7 nM | 71000 nM | 
63 | CCc1ccc(C(=O)N(CC(=O)Nc2cc(C(C)(C)C)nn2-c2ccc(Cl)c(Cl)c2)C(C)C)cc1 | 3860 nM | 1730 nM | 87800 nM | 
64 | COc1ccc(Cl)cc1NC(=O)CSC1=C(C#N)C(c2ccccc2)C(C(=O)Nc2ccccc2)=C(C)N1 (stereo unspecified) | 1910 nM | 3760 nM | > 100000 nM | 
65 | CC(C)(C)CC(C)(C)Nc1c(-c2ccccc2OC(=O)C2CCCCC2)nc2ccccn12 | 10.1 nM | 349 nM | > 10000 nM | 
66 | COC(=O)C1=C(C)N/C(=C\c2cc(C)n(-c3ccccc3C(F)(F)F)c2C)C1=O | 29.9 nM | 22.4 nM | > 10000 nM | 
67 | CCCC(=O)NC(C(=O)N1CCN(C(c2ccccc2)c2ccccc2)CC1)C(C)C (stereo unspecified) | 10.9 nM | 387 nM | > 10000 nM | 
